# From PMC12133000 (PLOS One, 2025)
# Test system: rat liver microsomes (RLMs)
# Test: Michaelis-Menten kinetics (Km) of rivaroxaban in RLMs
# Type: in vitro ADME
# Conditions: read-out: Km of rivaroxaban
# Protocol: Three samples from each group were incubated, centrifuged, and separated as described earlier. The LC–MS/MS method was used to detect rivaroxaban metabolites. Km was calculated by applying the Michaelis–Menten equation using Prism v. 9.0 (GraphPad Software, MA, USA).
smiles,measurement,value
"O=C(NC[C@H]1CN(c2ccc(N3CCOCC3=O)cc2)C(=O)O1)c1ccc(Cl)s1 [rivaroxaban, Rivaroxaban]",Km,17.6 µM
